Where two headings read alike, the source gives them in different places.
Tests used:
Caco-2 cell monolayers = details: cited from earlier work
Colon Intestine-Chip = assay: Barrier disruption/rescue assay in organoid-derived Colon Intestine-Chip (apparent permeability, 3 kDa dextran); assay type: cell-based, human
Method: As one example, to evaluate the integrity of the intestinal barrier 3 kDa Cascade Blue dextran (Sigma, D7132) was added to the epithelial compartment of the Duodenum-Chip at 0.1 mg/ml on the day of connecting a microfluidic device to flow, e.g., see exemplary timelines. Effluents of the endothelial compartment were sampled 3 hours after the addition of a dye, up to 24 hours, up to 48 hours, up to 72 hours, or at 48 hour intervals until the end of the assay, in order to determine the concentration of dye that has diffused through the membrane.
The apparent paracellular permeability (Papp) was calculated based on a standard curve and using the following formula: […]
In some embodiments, a microfluidic device as described herein, is used for an in vitro assay for evaluating a substance for its ability or efficacy of ‘rescuing’ barrier function. In some embodiments, a human intestine chip is used for an in vitro assay for evaluating a substance for ‘rescuing’ barrier function. In some embodiments, a human intestine chip is an organoids-derived colonic intestine chip. In some embodiments, Organoids-derived Colonic Epithelial Cells are seeded into one channel with Intestinal Microvascular Endothelial Cells seeded into an opposing channel separated by a membrane, as described herein. After seeding cells on Day 0, flow was initiated on Day 1 with stretch initiated on Day 2.
The following is an exemplary timeline for one embodiment of a Barrier Disruption/Rescue Assay, e.g. rescuing 3 hours of injury by a peptide substance, e.g. AT1002 (synthetic peptide H-FCIGRL-OH of ZO toxin) with AT1001, larzaride acetate. Day −5: experiment preparation (prep), as described herein; Day 0: Intestine chip seeding both cells types, epithelial and endothelial; Day 1 starting flow; Day 2 starting stretch, in some embodiments starting […] at lower levels then increasing up to 10% over 24 hours (1 day), over 2 days, or over 3 days; Day 5; starting Injury/Rescue Assay: using a known reversible injury inducing substance: Injure period starting at 0 hour continuing up to 3 hours, or more. Day 6 first readout time point (24 hours); Day 7, in some embodiments, Fix cells at 48 hours post injury; Days 7-21, in some embodiments, initiate at least one Endpoint Assay for analysis; and in some embodiments Day 21 is a report-out of assay. Exemplary check timepoints for readouts: 0, 24 and 48 hours after initiation of injury inducing substance. In some embodiments, Endpoint Assays and Analysis are done on Day 14. In some embodiments, Endpoint Assays and Analysis are done on Day 21. In some embodiments, a test substance for ‘rescuing’ damage may be evaluated within 14 days. In some embodiments, a test substance for ‘rescuing’ damage may be evaluated within 21 days from the beginning of cell culturing. […]

mouse PXR (mPXR) = molecular target: T1, mouse PXR (mPXR) (Mus musculus, UniProt O54915); details: cited from earlier work
T1 sequence (O54915 1-431): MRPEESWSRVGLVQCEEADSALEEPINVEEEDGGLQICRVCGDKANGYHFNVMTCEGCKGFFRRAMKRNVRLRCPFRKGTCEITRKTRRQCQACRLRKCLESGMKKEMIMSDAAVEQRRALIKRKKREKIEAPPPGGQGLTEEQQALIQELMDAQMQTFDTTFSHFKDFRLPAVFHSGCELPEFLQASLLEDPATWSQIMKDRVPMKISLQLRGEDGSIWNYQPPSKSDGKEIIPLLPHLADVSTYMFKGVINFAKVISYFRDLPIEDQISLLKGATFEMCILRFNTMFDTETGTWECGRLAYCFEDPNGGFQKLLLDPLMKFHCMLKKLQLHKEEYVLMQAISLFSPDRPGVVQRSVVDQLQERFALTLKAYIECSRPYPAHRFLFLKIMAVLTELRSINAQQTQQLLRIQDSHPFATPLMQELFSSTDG

human PXR (hPXR) = molecular target: T2, human PXR (hPXR) (Homo sapiens, UniProt O75469); details: cited from earlier work
T2 sequence (O75469 1-434): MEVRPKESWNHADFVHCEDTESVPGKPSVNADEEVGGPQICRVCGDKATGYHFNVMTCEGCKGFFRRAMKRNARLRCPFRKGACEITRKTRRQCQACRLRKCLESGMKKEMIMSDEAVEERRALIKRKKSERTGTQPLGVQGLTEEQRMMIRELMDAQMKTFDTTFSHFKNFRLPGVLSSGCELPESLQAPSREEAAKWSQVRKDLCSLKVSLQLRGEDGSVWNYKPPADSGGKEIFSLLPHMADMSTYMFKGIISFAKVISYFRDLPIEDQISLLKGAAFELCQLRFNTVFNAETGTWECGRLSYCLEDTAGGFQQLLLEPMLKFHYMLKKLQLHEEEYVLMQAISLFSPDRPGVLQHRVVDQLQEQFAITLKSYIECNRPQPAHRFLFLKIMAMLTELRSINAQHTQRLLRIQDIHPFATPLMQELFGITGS

MDR1 (P-gp) [1] = molecular target: T3, MDR1 (P-gp) (Homo sapiens, UniProt P08183); details: 22 μM
Method: (§1) To evaluate the applicability of this system for the studies of pharmacology related questions we assessed the presence and localization of major intestinal drug transporters in Duodenum-Chips established from the tissue of 3 different donors by qRT-PCR and immunofluorescent imaging.
(§2) The transporter activity of MDR-1/P-gp was assessed using the MDR1 Efflux Assay Kit (e.g., ECM910, Millipore), as per manufacturer's instructions. […] Intracellular accumulation of dye, was detected by fluorescent imaging (Olympus IX83) and measured in the presence and absence of MDR-1 specific inhibitor vinblastine (22 μM). At least three independent experiments were performed for Caco2 Intestine-Chips and Duodenum-Chips, each using chips established from a different donor of biopsy-derived organoids. At least three different chips were used per condition, images of each were taken at three different fields of view, digitally processed and quantified using Fiji software.

MDR1 (P-gp) [2] = molecular target: T3, MDR1 (P-gp); details: 22 μM; remark: listed apart in the source
Method: as §1, §2

CYP3A4 [3] = tested on: CYP3A4
CYP3A4 [4] = tested on: CYP3A4; remark: listed apart in the source
Colon-Chip = assay: IL-13 mediated enrichment of tuft cells in Colon-Chip; assay type: cell-based, human; details: 10 ng/ml
Method: Stimulation: Exposure of Colon-Chips and ileal and colonic organoids (serve as a control) to 10 ng/ml of IL-13.
Read-outs: mRNA expression of genes specific for Tuft cells: Trpm5, ChAT, Dclkl and for goblet cells: Muc2, TFF3, etc., (to assess concomitant expansion of goblet cell populations) at day 2, 3 and 6 post-treatment corresponding to day 4, 5 and 8 of Colon-Chip culture.
IL-13 treatment has no negative impact of Colon-Chip tissue morphology and barrier function.
Summary of IL-13 mediated enrichment of the tuft cells in Colon-Chip. […] We performed stimulation of Colon-Chips with IL-13 in order to drive tuft cell differentiation and enrich for the presence of these cells in Intestine-Chip platform. […] In some embodiments, Gene expression levels of Tuft cell (Trpm5, ChAT) and goblet cell (Muc2, TFF3) specific markers are evaluated.

[5] = tested on: Mixed primary murine intestinal cultures; details: 3 uM, 2 hours, GLP-1 active ELISA kit, Millipore, cited from earlier work
mouse CAR (mCAR) = molecular target: T4, mouse CAR (mCAR) (Mus musculus, UniProt O35627); details: cited from earlier work
T4 sequence (O35627 1-358): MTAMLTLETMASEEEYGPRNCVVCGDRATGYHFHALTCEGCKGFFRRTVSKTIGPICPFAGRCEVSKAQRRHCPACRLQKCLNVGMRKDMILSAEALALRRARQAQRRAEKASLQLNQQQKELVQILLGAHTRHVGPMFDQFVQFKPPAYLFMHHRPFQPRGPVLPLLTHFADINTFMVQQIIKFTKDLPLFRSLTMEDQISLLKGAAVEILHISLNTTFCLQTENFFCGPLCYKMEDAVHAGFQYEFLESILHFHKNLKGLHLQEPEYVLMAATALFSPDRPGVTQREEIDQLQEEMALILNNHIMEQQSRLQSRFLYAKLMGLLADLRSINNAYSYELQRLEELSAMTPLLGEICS

human CAR (hCAR) = molecular target: T5, human CAR (hCAR) (Homo sapiens, UniProt Q14994); details: cited from earlier work
T5 sequence (Q14994 1-352): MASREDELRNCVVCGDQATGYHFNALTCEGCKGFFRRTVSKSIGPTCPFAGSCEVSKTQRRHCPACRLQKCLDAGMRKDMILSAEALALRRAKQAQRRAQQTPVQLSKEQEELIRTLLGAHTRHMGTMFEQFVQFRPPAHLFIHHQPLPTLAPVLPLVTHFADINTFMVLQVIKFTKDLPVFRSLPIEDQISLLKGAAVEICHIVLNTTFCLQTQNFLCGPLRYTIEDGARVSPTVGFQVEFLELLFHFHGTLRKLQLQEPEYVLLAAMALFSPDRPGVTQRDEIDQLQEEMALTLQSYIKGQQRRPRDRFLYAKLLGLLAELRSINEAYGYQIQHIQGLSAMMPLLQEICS

T3 sequence (P08183 whole entry): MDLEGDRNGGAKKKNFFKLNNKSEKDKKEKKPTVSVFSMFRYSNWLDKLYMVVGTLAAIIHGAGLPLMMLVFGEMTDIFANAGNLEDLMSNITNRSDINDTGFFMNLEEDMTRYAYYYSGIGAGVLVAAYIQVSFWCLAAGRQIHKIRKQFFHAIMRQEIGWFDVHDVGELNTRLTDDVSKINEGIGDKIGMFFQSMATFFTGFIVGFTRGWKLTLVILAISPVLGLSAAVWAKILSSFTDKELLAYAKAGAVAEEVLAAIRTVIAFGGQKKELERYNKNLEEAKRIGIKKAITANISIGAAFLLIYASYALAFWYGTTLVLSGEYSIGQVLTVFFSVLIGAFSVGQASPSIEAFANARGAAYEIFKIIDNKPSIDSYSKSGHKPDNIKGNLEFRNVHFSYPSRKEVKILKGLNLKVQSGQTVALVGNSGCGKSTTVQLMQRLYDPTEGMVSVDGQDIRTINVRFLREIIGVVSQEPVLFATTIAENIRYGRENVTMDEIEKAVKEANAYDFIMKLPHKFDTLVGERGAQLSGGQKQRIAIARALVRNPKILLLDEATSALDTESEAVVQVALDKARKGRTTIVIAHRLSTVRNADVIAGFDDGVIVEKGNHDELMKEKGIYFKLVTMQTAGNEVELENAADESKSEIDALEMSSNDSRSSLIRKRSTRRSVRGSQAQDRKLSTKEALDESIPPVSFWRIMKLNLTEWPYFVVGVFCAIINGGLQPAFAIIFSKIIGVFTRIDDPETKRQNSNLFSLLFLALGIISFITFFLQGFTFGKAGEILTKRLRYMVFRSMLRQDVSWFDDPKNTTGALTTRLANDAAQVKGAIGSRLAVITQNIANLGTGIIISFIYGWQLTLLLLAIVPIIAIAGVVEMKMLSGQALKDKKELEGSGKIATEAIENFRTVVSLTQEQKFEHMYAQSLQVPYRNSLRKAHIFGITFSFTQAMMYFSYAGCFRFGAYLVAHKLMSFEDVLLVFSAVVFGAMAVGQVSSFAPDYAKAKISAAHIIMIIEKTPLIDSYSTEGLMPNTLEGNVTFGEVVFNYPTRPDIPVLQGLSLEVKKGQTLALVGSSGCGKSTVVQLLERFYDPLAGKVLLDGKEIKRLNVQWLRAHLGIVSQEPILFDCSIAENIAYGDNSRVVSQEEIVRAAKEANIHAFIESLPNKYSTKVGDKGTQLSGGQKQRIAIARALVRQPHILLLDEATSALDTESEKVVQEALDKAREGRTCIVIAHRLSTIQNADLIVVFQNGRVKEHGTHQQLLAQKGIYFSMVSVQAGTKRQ

Compound: Larazotide acetate
- increase in TJ permeability elicited by basolaterally applied cytokines (Caco-2 cell monolayers; apically applied): inhibited
- restoration of barrier integrity/function injured by IFN-gamma (Colon Intestine-Chip; 12.5 mM, IFN-gamma 25 ng/ml, 3 KDa Dextran Texas Red, N=5): partially restored/rescued
- restore/rescue of barrier integrity (Colon Intestine-Chip; Colon Intestine-Chip exposed to AT1002, 20 mM, after 24 hours, N=5): up to 100%

Compound: CC(=O)[C@H]1[C@H](C#N)C[C@H]2[C@@H]3CC=C4C[C@@H](O)CC[C@]4(C)[C@H]3CC[C@@]21C [PCN, 5-pregnen-3β-ol-20-one-16α-carbonitrile]
- agonism at mouse PXR (mouse PXR (mPXR)): potent mPXR agonist
- agonism at human PXR (human PXR (hPXR)): poor agonist

Compound: CC[C@]1(O)C[C@@H]2CN(CCc3c([nH]c4ccccc34)[C@@](C(=O)OC)(c3cc4c(cc3OC)N(C)[C@H]3[C@@](O)(C(=O)OC)[C@H](OC(C)=O)[C@]5(CC)C=CCN6CC[C@]43[C@@H]65)C2)C1 [vinblastine]
- increase in intracellular accumulation of rhodamine 123 (MDR1 (P-gp) [1]): 2.14 fold
- increase in intracellular accumulation of rhodamine 123 (MDR1 (P-gp) [2]): 1.84 fold

Compound: C=C1/C(=C\C=C2/CCC[C@]3(C)[C@@H]([C@H](C)CCCC(C)(C)O)CC[C@@H]23)C[C@@H](O)C[C@@H]1O [VD3, 1,25-dihidroxyvitamin D3]
- CYP3A4 induction (in words) (CYP3A4 [3]; Caco-2 Intestine-Chip): induced
- metabolic activity of CYP3A4 (CYP3A4 [3]; Caco-2 Intestine-Chip): no effect
- CYP3A4 induction (in words) (CYP3A4 [3]; Caco-2 Intestine-Chip, listed as Vitamin D3): showed induction
- CYP3A4 protein level (Western Blot) (CYP3A4 [3]; Caco-2 cells after inducer treatment): below the limit of detection
- enhancement of CYP3A4 mRNA level (CYP3A4 [3]; Caco-2 cells, 100 nM, 48 h): 316 fold
- CYP3A4 drug metabolism activity (CYP3A4 [4]; Duodenum Intestine-Chip): significantly increased
- CYP3A4 protein levels (CYP3A4 [4]; Duodenum Intestine-Chip): significantly increased
- induction of CYP3A4 expression relative to DMSO-treated controls (CYP3A4 [4]; Duodenum-Chip, average of 3 donors, 20 μM RIF or 100 nM VD3, 48 h): 4.1 fold

Compound: H-FCIGRL-OH [AT1002]
- lucifer yellow permeability (Caco-2 cell monolayers; Caco-2 cell monolayers): increase
- transepithelial electrical resistance (TEER) (Caco-2 cell monolayers; Caco-2 cell monolayers): reversible reduction
- cytotoxicity (Caco-2 cell monolayers): no overt cytotoxicity
- injury effect on barrier (apparent permeability, 3 KDa Dextran Cascade Blue) (Colon Intestine-Chip; organoid-derived colon chip): barrier disruption in a concentration-dependent manner

Compound: IFN-gamma: injury inducing cytokine
- permeability of Colon Intestine Chip (Colon Intestine-Chip; 10 ng/ml - 50 ng/ml, 48 hours, 3 KDa Dextran Cascade Blue): increases post 48 hours independent of IFN-gamma concentrations tested

Compound: CCOP(=O)(OCC)C(=Cc1cc(C(C)(C)C)c(O)c(C(C)(C)C)c1)P(=O)(OCC)OCC [SR12813]
- agonism at mouse PXR (mouse PXR (mPXR)): not for mouse PXR

Compound: IL-13: cytokine used to drive tuft cell differentiation
- effect on Colon-Chip morphology and barrier function (Colon-Chip): no negative effect
- tuft cell population (Colon-Chip): Enrichment

Compound: Cc1onc(-c2ccccc2Cl)c1C(=O)N(C)c1ccc(Cl)cc1 [GPBAR-A]
- GLP-1 Concentration (fold increase) in the presence of 10 mM glucose ([5]; in the presence of 10 mM glucose): 3.5 fold increase
- GLP-1 Concentration (fold increase) [5]: 2.5 fold increase

Compound: Clc1cnc(Oc2ccc(Oc3ncc(Cl)cc3Cl)cc2)c(Cl)c1 [TCPOBOP, 1,4-bis-[2-(3,5-dichloropyridyloxy)]benzene,3,3′.5.5′-tetrachloro-1,4-bis(pyridyloxy)benzene]
- selectivity mCAR versus hCAR (mouse CAR (mCAR)): more selective for mCAR than hCAR

Compound: Clc1ccc(-c2nc3sccn3c2C=NOCc2ccc(Cl)c(Cl)c2)cc1 [CITCO, 6-(4-chlorophenyl)imidazo[2,1-b][1,3]thiazole-5-carbaldehyde-O-(3,4-dichlorobenzyl)oxime]
- agonism at mouse CAR (mouse CAR (mCAR)): not mouse CAR
- agonism at human CAR (human CAR (hCAR)): strong agonist
